{"source": "patent US8173428B2", "about": "“LNA oligonucleotides and the treatment of cancer” (Santaris Pharma A/S, priority 2004, dated 2012)", "key": {"15PC3 cells [1]": {"tested_on": "15PC3 cells", "experiment": "MTS assay of proliferating viable cells", "format": "cell-based, human", "procedure": "(§1) Culturing of cells: 15PC3 was cultured in DMEM (Sigma) containing 10% fetal bovine serum, Glutamax I and gentamicin at 37° C., 95% humidity and 5% CO2. The cervical carcinoma cell line HeLa were cultured in MEM (Sigma) containing 10% fetal bovine serum, Glutamax I and gentamicin at 37° C., 95% humidity and 5% CO2. When reaching 60-70% confluency, the cells were transfected using Lipofectamine 2000 (5 μg/ml).\nCells were seeded to a density of 10000 cells per well in clear 96 well plate (Scientific Orange no. 1472030100) in DMEM the day prior to transfection. The next day cells were washed once in prewarmed OptiMEM followed by addition of 72 μl OptiMEM containing 5 μg/ml Lipofectamine 2000 (Invitrogen). Cells were incubated for 7 min before adding 18 μl oligonucleotides diluted in OptiMEM. […] After 4 hours of treatment, cells were washed in OptiMEM and 100 μl serum containing DMEM was added. Following oligonucleotide treatment cells were allowed to recover for the period indicated, viable cells were measured by adding 20 μl of the tetrazolium compound [3-(4,5-[…])-5-(3-carboxymethoxyphenyl)-2-(4-sulfophenyl)-2H-tetrazolium, inner salt; MTS] and an electron coupling reagent (phenazine ethosulfate, PES; CellTiter 96® AQueous One Solution Cell Proliferation Assay, Promega). Viable cells were measured at 490 nm and 650 nm in a Powerwave (Biotek Instruments).\nThe inhibition of growth rate ΔOD (490-650 nm)/h was plotted against the oligonucleotide concentration relative to mock, which was set to 100%. The maximum inhibition of proliferation observed in the MTS assay was 70% (minimum 30%). (Table 5 and FIG. 5)"}, "HeLa cells": {"tested_on": "HeLa cells", "experiment": "Annexin V-FITC/PI flow cytometry analysis", "format": "cell-based, human", "settings": "5 nM or 25 nM", "procedure": "as §1\n0.4×10^6 HeLa cells were seeded in T25 flasks one day prior to transfection. On the day of transfection, the cells were washed once in 37° C. OptiMEM followed by addition of 2.8 ml OptiMEM containing 5 μg/ml Lipofectamine-2000 (In vitrogen). Cells were incubated for 7 min before adding 700 μl oligonucleotides diluted in OptiMEM to a final concentration of 5 nM or 25 nM, Mock transfected cells served as control. After 4 hours of treatment cells were washed in OptiMEM and 3 ml culture medium was added. Following oligonucleotide treatment cells were allowed to recover for 48 hours before they were harvested by scraping and washed twice in PBS. 0.2×10^6 cells were incubated with 5 μl Annexin V-FITC and 10 μl propidium iodide (PI-10 mg/ml) and incubated for 15 min at room temperature in the dark. […] Moreover, TRAIL (Apo2L) induced HeLA cells (0.5 μg/ml) were used as positive control. (See FIG. 4)"}, "15PC3 cells [2]": {"tested_on": "15PC3 cells", "experiment": "Caspase 3/7 assay, oligonucleotide in combination with Taxol", "format": "cell-based, human", "settings": "10 nM oligonucleotide with Taxol (10 nM or 100 nM), 48 hours and 72 hours", "procedure": "Cell culturing: Human prostate cancer 15PC3 cells (kindly provided by Dr. F Baas, Neurozintuigen Laboratory, AMC, The Netherlands) were seeded to a density of 8×10E5 cells in T75-flasks and grown for two days at 37° C. and 5% CO2 in DMEM supplemented with 10% FBS, Glutamax and Gentamicin. Two days following seeding cells were transfected with 2-10 nM SEQ ID NO. 2 using Lipofectamine at a final conc. of 7.5 μg/ml. Transfections were carried out as described by Dean et al. (1994, JBC 269 p. 16416 16424). In short cells were incubated with Lipofectamine diluted in OptiMEM for 7-10 min followed by the addition of the oligonucleotide to total volume of 8.7 ml per T75 flask. […] Cells were harvested for either mRNA extraction, Caspase 3/7 assay or fixed, stained with PI and analysed by FACS analysis.\nCaspase 3/7 assay: An equal amount of 15PC3 cells ranging from 2500-10000 cells were harvested by centrifugation at the indicated periods and plated in white 96 well plates (Nunc 136101) in DMEM. 100 μl of the highly sensitive Caspase 3/7-Glo™ Reagent (Promega) was added directly to the cells in 96 well and plates were incubated for 1 hour before recording luminescence (luciferase activity) in Luminoskan Ascent instrument from Thermo Labsystems after further 1 min lag period. The luciferase activity is measured as Relative Light Units per seconds (RLU/s). […]"}, "complementary RNA": {"tested_on": "complementary RNA", "experiment": "Measurement of melting temperature (Tm) of the duplex", "format": "binding", "settings": "3 μM, 10 mM sodium phosphate/100 mM NaCl/0.1 nM EDTA, pH 7.0", "procedure": "Measurement of melting temperature (Tm) of the compounds: A 3 μM solution of SEQ ID NO. 2 in 10 mM sodium phosphate/100 mM NaCl/[…], pH 7.0 was mixed with its complement DNA/RNA 3 μM in 10 mM sodium phosphate/100 mM NaCl/[…], pH 7.0 at 90° C. for a minute and allowed to cool to room temperature. The Tm of the duplex was then determined by increasing the temperature 1° C./min. from 25 to 95° C. The Tm of SEQ ID NO."}, "[3]": {"experiment": "Stability in human plasma", "format": "in vitro ADME", "settings": "20 μM, 37° C., up to 96 hours", "procedure": "Stability of 20 μM SEQ ID NO. 2 and SEQ ID NO. 24 in human and mouse plasma (Li-Heparine (Taconic, M&B)) at 37° C. at different time aliquots: 0, 1, 2, 4, 24, 48 and 96 hours. A commercially available ladder was also included (10 and 20 mer are visible on the PAGE). (see FIG. 1)"}, "rats": {"tested_on": "rats", "experiment": "i.v. acute toxicity study in rats", "format": "in vivo", "from_the_text": "For SEQ ID NO. 2 the following was found among others in preclinical toxicity studies: […]"}}, "note": "Like-named read-outs stand apart in the source and are kept apart here. Oligonucleotides are written 5' to 3', each unit as a sugar letter and its base; * is a phosphorothioate linkage, no mark a phosphodiester; rarer units and linkages stand in square brackets, end groups in braces. Plain capitals give the bases only. l = locked nucleic acid (LNA); [5mC] = 5-methylcytosine; d = 2'-deoxy (DNA)", "data": [{"substance": "5′-^MeCsTs^MeCsAsastscscsastsgsgs^MeCsAsGsc-3′ (l[5mC]*lT*l[5mC]*lA*dA*dT*dC*dC*dA*dT*dG*dG*l[5mC]*lA*lG*dC) [SEQ ID NO. 2]", "values": [{"measurement": "Proliferation (relative number of viable cells)", "setting": "15PC3 cells [1]; 0.2, 1, 5, 25 and 100 nM, 13-72 hours after transfection, 15PC3 cells", "value": "dose dependent inhibition of proliferation"}, {"measurement": "IC50", "setting": "15PC3 cells [1]; 48 hours (Table 7, FIG. 5), read-out: Proliferation IC50 (48 hours)", "value": 5, "unit": "nM"}, {"measurement": "IC50", "setting": "15PC3 cells [1]; 48 hours, transfected 15PC3 cells (Table 5), read-out: Inhibition of proliferation, MTS assay IC50 (48 hours)", "value": 4.9, "unit": "nM"}, {"measurement": "Induction of early and late apoptosis (Annexin V-FITC/PI staining)", "setting": "HeLa cells", "value": "dose dependent induction of early and late apoptosis"}, {"measurement": "Induction of apoptosis (Caspase 3/7 activity) in combination with Taxol", "setting": "15PC3 cells [2]", "value": "clear additive effect on the induction of apoptosis"}, {"measurement": "Tm (° C.) complementary RNA", "setting": "complementary RNA", "value": 75.3, "unit": "°C"}, {"measurement": "Stability in human plasma (degradation products)", "setting": "[3]", "value": "No degradation products"}, {"measurement": "lowest lethal dose", "setting": "rats", "value": 1000, "unit": "mg/kg"}]}]}
